Experimental data published in patent US6723235B2, “Apparatus for screening compound libraries” (priority 1998, dated 2004).

Biological target: cholera toxin B subunit (Vibrio cholerae serotype O1, UniProt P01556)
Assay type: binding

Chain of cholera toxin B subunit (P01556 22-124 limits assumed): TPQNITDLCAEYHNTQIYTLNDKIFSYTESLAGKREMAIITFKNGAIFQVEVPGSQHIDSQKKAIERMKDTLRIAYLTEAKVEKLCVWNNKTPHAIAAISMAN

## COC(=O)CCCCCCCCOC1OC(COC2OC(CO)C(O)C(O)C2O)C(O)C(OC2OC(CO)C(O)C(O)C2O)C1O (centres unmarked) [compound 3, αMan(1→3)[αMan(1→6)]βMan-OGr]
  break through relative to void volume: broke through in the void volume

## CC(=O)N[C@H]1[C@H](O[C@@H]2[C@H](O[C@]3(C(=O)O)C[C@H](O)[C@@H](NC(C)=O)[C@H]([C@H](O)[C@H](O)CO)O3)[C@@H](O)[C@H](O[C@H]3[C@H](O)[C@@H](O)[C@H](O)O[C@@H]3CO)O[C@@H]2CO)O[C@H](CO)[C@H](O)[C@@H]1O[C@@H]1O[C@H](CO)[C@H](O)[C@H](O)[C@H]1O [compound 7, GM1 oligosaccharide]
pH 6.9
  break through volume: ~300 µL
